# Description: More particularly, silver ion solubility [Ag+], a value given in mol/L may be calculated using the formula: […]
compound,measurement,value
[Cl][Ag] [Silver chloride],Silver Ion Solubility [Ag+],13 µM

# From US20190327975A1, “AN ANTIMICROBIAL COMPOSITION” (Conopco, Inc., d/b/a UNILEVER, priority 2016, published 2019)
